Measured values as given in patent publication US12162850B2, “Formulations” (Betagenon AB, priority 2019, dated 2024).

What was measured:
[1] = Particle size analysis of dry-milled products (laser diffraction, Shimadzu SALD-2300); format: physicochemical
Description: Milling was performed for Examples 1a to 1c using an air jet mill (Equipment code: CP-AJM-01; Promas engineers) with the following parameters: Micronisation was repeated in all examples by performing the air jet milling for a second time using the same parameters. This allowed the particle size D90 to be reduced to less than 10 μm. [table] Four drops of Tween 20 were added to 25 mL of water and the mixture was sonicated for 3 minutes to form the dispersant solution. 0.05 g of milled material was transferred into a 250 mL glass beaker. 25 mL of the dispersant solution (Tween 20/water mixture) was added to the beaker with continuous swirling for 2 to 3 minutes. The suspension was transferred into the measuring unit and the particle size distribution measurements were conducted in triplicate.

[2] = Single dose oral pharmacokinetic studies in rabbits; format: in vivo, male New Zealand White rabbits; settings: for Plasma concentration, mean: 90 mg/kg b.w. oral; for Cmax / MRT last / Tmax / AUC(0-t) / AUC(0-inf) / half-life: male, New Zealand White, plasma, po
Description: The studies detailed below (and referred to as Examples 2 to 8) were conducted to provide comparative single dose oral pharmacokinetics data for Compound 1, as well as sodium and potassium salts of that compound, using non-coated and enteric-coated capsules in male New Zealand White rabbits.
Compound 1 was made using the process described in WO 2011/004162 and milled as described for Example 1c. The non-coated or enteric coated gelatin capsules were individually filled with 180 mg of dry-milled Compound 1 together with accompanying excipients as indicated. Both capsule types were filled with Compound 1 together with 1.8 mg of sodium docusate, 0.18 mg of PVP K30 and 9 mg of mannitol.
Similarly, Compound 2, non-coated or enteric coated gelatin capsules were individually filled with 180 mg of dry-milled Compound 2 (as obtained in Example 1f) together with 1.8 mg of sodium docusate, 0.18 mg of PVP K30 and 9 mg of mannitol.
For Compound 3, non-coated or enteric coated gelatin capsules were individually filled with 90 mg of dry-milled Compound 3 (as obtained in Example 1i) together with 0.90 mg of sodium docusate, 0.09 mg of PVP K30 and 4.50 mg of mannitol.
40 mL of the 2% w/v methyl cellulose solution was added to a 250 mL conical flask together with 10 g of 2 mm glass beads, and vigorously stirred. Compound 1 (720 mg) was slowly added to the solution and the mixture was with continuously stirred for 1 h. The homogenate was transferred to separate flask and its pH recorded. The suspension formulation was prepared before administration to the animals.
Adult healthy male New Zealand white rabbits aged approximately 2 to 3 months old were used for experimentation after 7 days of acclimatization.
To dose the filled capsules, a soft plastic dosing tube was used. The filled capsule was inserted into the dosing tube so that the short end of the capsule protrudes slightly from the tip of the tube. The tip of the capsule was dipped in mineral oil to aid swallowing.
To dose the suspension, an infant feeding tube was used. The feeding tube was inserted through the mouth of the rabbit to the oesophagus and the stomach, and ascertained that it has not been placed in the trachea before dosing to the animals. The suspension of the Compound 1 was administered through the feeding tube. After the administration of the suspension, drinking water of approximately 2.0-2.5 mL was administered to flush out the contents in the feeding tube.
The animals were restrained in a rabbit restrainer and blood samples (400-500 μL/time point) were collected via the central ear artery at 0.16, 0.25, 0.50, 1.0, 2.0, 4.0, 6.0, 8.0, 24.0, 48.0 and 72 hours post-dosing. Collected blood specimens were centrifuged at 4000 or 6000 rpm, 4° C. for 10 minutes and plasma samples were separated and stored at −80° C. until analysis.
Concentrations of the analyte of Compound 1 in New Zealand white rabbits was determined using an API 3200 Q-trap LC-MS/MS system.
Chromatographic separation was achieved on Zorbax C18, 50×4.6 mm, 5 μm column with methanol-0.1% formic acid as mobile phase with gradient elution. The flow rate was set at 1.0 mL min^−1. Detection was accomplished by a triple-quadrupole tandem mass spectrometer in multiple-reaction monitoring (MRM) scanning via electrospray ionization source, applied in the positive mode. The optimised mass transition ion-pairs for quantitation were m/z 379.999→125.000 for the compound 1 and m/z 376.165→165.00 for the ISD (Haloperidol). Calibration plots were linear over the range of 11.062 to 20594.820 ng/mL.
The data of plasma concentration to respective time points for the analyte Compound 1 were used for the pharmacokinetic analysis. Pharmacokinetic analysis was performed using non-compartmental analysis (NCA) module of Phoenix WinNonlin 6.3 software to determine the following pharmacokinetic parameters: • Cmax • Tmax • AUC0-t • AUC0-∞ • T1/2 • MRT […]

[3] = after 1st milling (air jet mill)
[4] = after 2nd milling (air jet mill)
[5] = rabbit, 25 mg/kg, enteric coated capsule with MgO, 25 mg/kg b.w. oral single dose, rabbit plasma (Example 9)
[6] = rabbit, 25 mg/kg, enteric coated capsule with mannitol, 25 mg/kg b.w. oral single dose, rabbit plasma (Example 10)
[7] = rabbit, 53 mg/kg, enteric coated capsule with MgO, 53 mg/kg b.w. (equivalent to 50 mg/kg Compound 1) oral single dose, rabbit plasma (Example 11)
[8] = rabbit, 90 mg/kg, enteric coated capsule, 90 mg/kg b.w. oral single dose, rabbit plasma (Examples 5, 6, 7)
[9] = rabbit, 90 mg/kg, non-coated capsule, 90 mg/kg b.w. oral single dose, rabbit plasma (Examples 2, 3, 4)

O=C(Nc1nc(=O)n(Cc2ccc(Cl)cc2)s1)c1ccc(Cl)cc1.[Na] [Compound 2, 4-chloro-N-[2-[(4-chlorophenyl)methyl]-3-oxo-1,2,4-thiadiazol-5-yl]benzamide sodium salt]
Particle size distribution D10 [1, 3]: 0.508 μm
Particle size distribution D50 [1, 3]: 3.58 μm
Particle size distribution D90 [1, 3]: 11.5 μm
Particle size distribution D100 [1, 3]: 31.1 μm
Particle size distribution D10 [1, 4]: 0.414 μm
Particle size distribution D50 [1, 4]: 2.70 μm
Particle size distribution D90 [1, 4]: 8.29 μm
Particle size distribution D100 [1, 4]: 24.0 μm
Particle size distribution D10 ([1]; before milling): 1.11 μm
Particle size distribution D50 ([1]; before milling): 7.62 μm
Particle size distribution D90 ([1]; before milling): 31.7 μm
Particle size distribution D100 ([1]; before milling): 185 μm
Plasma concentration, mean ([2]; 0.00 h, enteric coated capsule, rabbit): 0.000 ng/mL
Plasma concentration, mean ([2]; 0.00 h, non-coated capsule, rabbit): 0.000 ng/mL
Plasma concentration, mean ([2]; 0.16 h, enteric coated capsule, rabbit): 0.000 ng/mL
Plasma concentration, mean ([2]; 0.16 h, non-coated capsule, rabbit): 0.000 ng/mL
Plasma concentration, mean ([2]; 0.25 h, enteric coated capsule, rabbit): 0.000 ng/mL
Plasma concentration, mean ([2]; 0.25 h, non-coated capsule, rabbit): 51.798 ng/mL
Plasma concentration, mean ([2]; 0.50 h, enteric coated capsule, rabbit): 0.000 ng/mL
Plasma concentration, mean ([2]; 0.50 h, non-coated capsule, rabbit): 206.386 ng/mL
Plasma concentration, mean ([2]; 1.00 h, enteric coated capsule, rabbit): 9.027 ng/mL
Plasma concentration, mean ([2]; 1.00 h, non-coated capsule, rabbit): 594.725 ng/mL
Plasma concentration, mean ([2]; 2.00 h, enteric coated capsule, rabbit): 13.276 ng/mL
Plasma concentration, mean ([2]; 2.00 h, non-coated capsule, rabbit): 1377.183 ng/mL
Plasma concentration, mean ([2]; 4.00 h, enteric coated capsule, rabbit): 624.216 ng/mL
Plasma concentration, mean ([2]; 4.00 h, non-coated capsule, rabbit): 15776.855 ng/mL
Plasma concentration, mean ([2]; 6.00 h, enteric coated capsule, rabbit): 11866.638 ng/mL
Plasma concentration, mean ([2]; 6.00 h, non-coated capsule, rabbit): 46144.063 ng/mL
Plasma concentration, mean ([2]; 8.00 h, enteric coated capsule, rabbit): 18413.782 ng/mL
Plasma concentration, mean ([2]; 8.00 h, non-coated capsule, rabbit): 71215.612 ng/mL
Plasma concentration, mean ([2]; 24.00 h, enteric coated capsule, rabbit): 99879.409 ng/mL
Plasma concentration, mean ([2]; 24.00 h, non-coated capsule, rabbit): 98809.233 ng/mL
Plasma concentration, mean ([2]; 48.00 h, enteric coated capsule, rabbit): 101178.612 ng/mL
Plasma concentration, mean ([2]; 48.00 h, non-coated capsule, rabbit): 93029.388 ng/mL
Plasma concentration, mean ([2]; 72.00 h, enteric coated capsule, rabbit): 90966.319 ng/mL
Plasma concentration, mean ([2]; 72.00 h, non-coated capsule, rabbit): 84071.553 ng/mL
improvement in systemic exposure compared with the milled free base active ingredient ([2]; dry milled, capsules, 90 mg/kg oral, rabbit): greatest improvements
increase in the systemic exposure compared to a standard suspension of the active ingredient (example 8) ([2]; dry milled, non-coated or enteric-coated capsules, 90 mg/kg oral, rabbit): up to six-fold
systemic exposure when formulated together with an alkaline excipient ([2]; enteric coated capsule with MgO, 53 mg/kg oral, rabbit (Example 11)): significant amount of systemic exposure
AUCextrap ([2]; enteric coated capsule, 90 mg/kg b.w. oral single dose, rabbit plasma (Examples 5, 6, 7)): 88.81 ± 3.497%
systemic exposure when formulated with an alkaline excipient in comparison with formulation in the absence of an alkaline excipient ([2]; enteric coated capsules, 25 mg/kg oral, rabbit, Example 9 (MgO) vs Example 10 (mannitol)): increase
Cmax [2, 5]: 49600 ± 4800 ng/mL
MRT last [2, 5]: 27.67 ± 0.11 h
Tmax [2, 5]: 24 h
Cmax [2, 6]: 47400 ± 7060 ng/mL
MRT last [2, 6]: 30 ± 1.73 h
Tmax [2, 6]: 32 ± 13.9 h
AUC(0-t) [2, 7]: 8930 ± 1190 µg·h/mL
Cmax [2, 7]: 153000 ± 24300 ng/mL
MRT last [2, 7]: 40.9 ± 1.43 h
AUC(0-inf) [2, 8]: 55700 ± 22700 µg·h/mL
AUC(0-t) [2, 8]: 5710 ± 1140 µg·h/mL
Cmax [2, 8]: 101000 ± 17000 ng/mL
MRT last [2, 8]: 43 ± 1.59 h
Tmax [2, 8]: 32 ± 13.9 h
half-life [2, 8]: 368 ± 109 h
AUC(0-inf) [2, 9]: 38100 ± 34700 µg·h/mL
AUC(0-t) [2, 9]: 5980 ± 2270 µg·h/mL
Cmax [2, 9]: 99000 ± 34600 ng/mL
MRT last [2, 9]: 38.8 ± 1.2 h
Tmax [2, 9]: 32 ± 13.9 h
half-life [2, 9]: 227 ± 140 h
AUCextrap ([2]; non-coated capsule, 90 mg/kg b.w. oral single dose, rabbit plasma (Examples 2, 3, 4)): 79.01 ± 8.87%
